Measured values from patent publication US7638537B2, “Pyrazole compounds as transforming growth factor (TGF) inhibitors” (Pfizer Inc., priority 2002, dated 2009).

Molecular target: T1, ALK-5 (TβRI) (Homo sapiens, UniProt P36897)
T1 construct: using either the kinase domain of ALK5 with Smad3 as substrate; GST
T1 sequence (P36897 205-495 limits assumed): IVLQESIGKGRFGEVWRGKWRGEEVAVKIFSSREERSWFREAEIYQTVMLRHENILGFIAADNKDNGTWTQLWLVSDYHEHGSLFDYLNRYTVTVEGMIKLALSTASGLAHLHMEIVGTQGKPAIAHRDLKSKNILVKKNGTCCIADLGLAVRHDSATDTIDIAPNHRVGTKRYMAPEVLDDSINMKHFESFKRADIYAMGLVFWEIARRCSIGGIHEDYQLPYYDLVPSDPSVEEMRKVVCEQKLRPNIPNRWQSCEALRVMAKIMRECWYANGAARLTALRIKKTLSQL
Test: ALK-5 (TβRI) Kinase Assay
Assay type: biochemical
Protocol: The kinase assays were performed with 65 nM GST-ALK5 and 84 nM GST-Smad3 in 50 mM HEPES, 5 mM MgCl2, 1 mM CaCl2, 1 mM dithiothreitol, and 3_M ATP. Reactions were incubated with 0.5_Ci of [33 P]_ATP for 3 h at 30° C. Phosphorylated protein was captured on P-81 paper (Whatman, Maidstone, England), washed with 0.5% phosphoric acid, and counted by liquid scintillation. Alternatively, Smad3 or Smad1 protein was also coated onto FlashPlate Sterile Basic Microplates (PerkinElmer Life Sciences, Boston, Mass.). Kinase assays were then performed in Flash-Plates with same assay conditions using either the kinase domain of ALK5 with Smad3 as substrate or the kinase domain of ALK6 (BMP receptor) with Smad1 as substrate. Plates were washed three times with phosphate buffer and counted by TopCount (Packard Bio-science, Meriden, Conn.). (Laping, N. J. et al. Molecular Pharmacology 62:58-64 (2002)).

IC50: ~51 nM
SMILES: c1ccc(-c2n[nH]cc2-c2ccc3c(c2)OCO3)nc1 [Example 7, 2-(4-Benzo[1,3]dioxol-5-yl-1H-pyrazol-3-yl)-pyridine]
